Activity calls are given as the source filed them. No cut-off for these calls is given here.
Experiments:
[1] = system: Osimertinib-resistant HCC827 cell; assay: Upregulation of c-Myc level in human Osimertinib-resistant HCC827 cells at 100 to 500 nM incubated for 12 hrs by Western blot analysis; format: functional, cell-based; details: dose 100-500 nM
HCC827 [2] = assay: Anti-proliferative activity against human HCC827 cells assessed as cell inhibition measured after 72 hrs in presence of 100 nM JQ1 by MTT assay; format: functional, cell-based; details: HCC827, 72 h
[3] = Toxicity in BALB-c nude mouse xenografted with human NCI-H1975 cells assessed as pathological damage in liver at 15 mg/kg, iv administered on every two days by H and E staining based analysis; format: organism-based; details: in vivo
[4] = Metabolic stability in dog liver microsomes assessed as half life measured for 5 to 60 mins by LC-MS/MS analysis; format: ADME, Canis lupus familiaris, Microsome; details: time 5-60 min
[5] = system: Lung adenocarcinoma organoid; assay: Anti-tumor activity against Osimertinib-resistant patient (#0416)-derived human Lung adenocarcinoma organoid assessed as inhibition of cell viability measured after 96 hrs; format: functional, tissue-based; details: Neoplasm
[6] = Downregulation of c-Myc level in human Osimertinib-resistant HCC827 cells at 100 nM incubated for 12 hrs in presence of JQ1 by Western blot analysis relative to control; format: functional, Osimertinib-resistant HCC827 cell
[7] = Toxicity in BALB-c mouse xenografted with human Osimertinib-resistant HCC827 cells assessed as decrease in body weight at 5 mg/kg, iv; format: organism-based; details: in vivo
[8] = biological target: CDK18/Cyclin Y (Homo sapiens) (UniProt Q07002+Q8ND76); assay: Inhibition of CDK18/Cyclin Y(unknown origin) at 100 nM preincubated for 10 mins followed by substrate/ATP measured after 60 mins by ADP-Glo assay relative to control; format: protein-complex assay; details: time 70.0 min
[9] = Apparent volume of distribution in Sprague-Dawley rat at 2 mg/kg, iv; format: ADME, organism-based; details: in vivo, read-out: Vz
[10] = system: Osimertinib-resistant HCC827 cell; assay: Upregulation of c-Myc mRNA level in human Osimertinib-resistant HCC827 cells by RNA-Seq analysis; format: functional, cell-based
[11] = biological target: Cyclin-dependent kinase 9 (Homo sapiens) (UniProt P50750); assay: Inhibition of CDK9 in human Osimertinib-resistant HCC827 cells assessed as decrease in Mcl-1 mRNA level by RNA-Seq analysis; format: cell-based; details: Osimertinib-resistant HCC827 cell
[12] = system: Lung adenocarcinoma organoid; assay: Anti-tumor activity against Almonertinib-resistant patient (#2566)-derived human Lung adenocarcinoma organoid assessed as inhibition of cell viability measured after 96 hrs; format: functional, tissue-based; details: Neoplasm
[13] = system: Lung adenocarcinoma organoid; assay: Anti-tumor activity against Osimertinib-resistant patient (#0243)-derived human Lung adenocarcinoma organoid assessed as inhibition of cell viability measured after 96 hrs relative to control; format: functional, Neoplasm
PC-9 = assay: Anti-proliferative activity against human PC-9 cells assessed as cell inhibition measured after 72 hrs by MTT assay; format: functional, cell-based; details: PC-9, 72 h
[14] = Clearance in Sprague-Dawley rat at 20 mg/kg, po; format: ADME, organism-based; details: in vivo
[15] = Drug concentration in tumor of BALB-c nude mouse xenografted with human NCI-H1975 cells at 15 mg/kg, iv measured after 30 mins by LC-MS/MS analysis; format: ADME, organism-based, Neoplasm; details: read-out: Ct
[16] = Toxicity in BALB-c mouse xenografted with human NCI-H1975 cells assessed as decrease in body weight at 5 mg/kg, iv; format: organism-based; details: in vivo
NCI-H1975 [17] = assay: Antitumor activity against human NCI-H1975 cells xenografted in BALB-c nude mouse at 15 mg/kg, iv administered on every two days relative to control; format: functional; details: NCI-H1975, 48 h, read-out: TGI
[18] = system: Osimertinib-resistant HCC827 cell; assay: Inhibition of chromosome organisation in human Osimertinib-resistant HCC827 cells by KEGG analysis; format: functional, cell-based
[19] = biological target: Homeodomain-interacting protein kinase 2 (Homo sapiens) (UniProt Q9H2X6); assay: Inhibition of HIPK2 (unknown origin) at 100 nM preincubated for 10 mins followed by substrate/ATP measured after 60 mins by ADP-Glo assay relative to control; details: time 70.0 min
[20] = Half life in Sprague-Dawley rat at 20 mg/kg, po; format: ADME, organism-based; details: in vivo
[21] = system: Osimertinib-resistant NCI-H1975 cell; assay: Induction of apoptosis in human Osimertinib-resistant NCI-H1975 cells assessed as late apoptotic cells at 2 uM incubated for 16 hrs by Annexin V-FITC/PI staining based flow cytometry (reference value: 1.42 %); format: functional
[22] = AUC (0 to t) in Sprague-Dawley rat at 20 mg/kg, po; format: ADME, organism-based; details: in vivo
[23] = Cmax in BALB/c mouse at 15 mg/kg, po; details: in vivo
[24] = Metabolic stability in pig liver microsomes assessed as clearance measured for 5 to 60 mins by LC-MS/MS analysis; format: ADME, Sus scrofa, Microsome; details: time 5-60 min, read-out: CLH
[25] = biological target: CDK2/Cyclin A2 (Homo sapiens) (UniProt P24941+P20248); assay: Inhibition of CDK2/Cyclin A2 (unknown origin) at 100 nM preincubated for 10 mins followed by substrate/ATP measured after 60 mins by ADP-Glo assay relative to control; format: protein-complex assay; details: time 70.0 min
NCI-H1975 [26] = assay: Anti-proliferative activity against human NCI-H1975 cells assessed as cell inhibition measured after 72 hrs by MTT assay; format: functional, cell-based; details: NCI-H1975, 72 h
HCC827 [27] = assay: Selectivity ratio of IC50 for anti-proliferative activity against human HCC827 cells to IC50 for anti-proliferative activity against human HCC827 cells in presence of JQ1; format: functional
[28] = system: Lung adenocarcinoma organoid; assay: Anti-tumor activity against Osimertinib-resistant patient (#0416)-derived human Lung adenocarcinoma organoid assessed as inhibition of cell viability measured after 96 hrs relative to control; format: functional, Neoplasm
[29] = biological target: Glycogen synthase kinase-3 alpha (Homo sapiens) (UniProt P49840); assay: Inhibition of GSK3-alpha (unknown origin) at 100 nM preincubated for 10 mins followed by substrate/ATP measured after 60 mins by ADP-Glo assay relative to control; details: time 70.0 min
NCI-H1975 [30] = assay: Anti-proliferative activity against human NCI-H1975 cells assessed as cell inhibition measured after 72 hrs in presence of 100 nM JQ1 by MTT assay; format: functional, cell-based; details: NCI-H1975, 72 h
[31] = Metabolic stability in human liver microsomes assessed as half life measured for 5 to 60 mins by LC-MS/MS analysis; format: ADME, Microsome; details: time 5-60 min
NCI-H1975 [32] = assay: Anti-proliferative activity against human NCI-H1975 cells assessed as cell inhibition measured after 72 hrs in presence of 500 nM JQ1 by MTT assay; format: functional, cell-based; details: NCI-H1975, 72 h
[33] = AUC (0 to infinity) in BALB/c mouse at 2 mg/kg, iv; format: ADME, organism-based; details: in vivo
[34] = biological target: Homeodomain-interacting protein kinase 4 (Homo sapiens) (UniProt Q8NE63); assay: Inhibition of HIPK4 (unknown origin) at 100 nM preincubated for 10 mins followed by substrate/ATP measured after 60 mins by ADP-Glo assay relative to control; details: time 70.0 min
[35] = Metabolic stability in monkey liver microsomes assessed as clearance measured for 5 to 60 mins by LC-MS/MS analysis; format: ADME, Macaca mulatta, Microsome; details: rhesus monkey, time 5-60 min, read-out: CLH
[36] = AUC (0 to t) in BALB/c mouse at 2 mg/kg, iv; format: ADME, organism-based; details: in vivo
[37] = system: Osimertinib-resistant NCI-H1975 cell; assay: Anti-proliferative activity against human Osimertinib-resistant NCI-H1975 cells assessed as cell inhibition measured after 72 hrs in presence of 250 nM JQ1 by MTT assay; format: functional, cell-based

Sequence of Cyclin-dependent kinase 9 (Homo sapiens) (P50750 whole entry): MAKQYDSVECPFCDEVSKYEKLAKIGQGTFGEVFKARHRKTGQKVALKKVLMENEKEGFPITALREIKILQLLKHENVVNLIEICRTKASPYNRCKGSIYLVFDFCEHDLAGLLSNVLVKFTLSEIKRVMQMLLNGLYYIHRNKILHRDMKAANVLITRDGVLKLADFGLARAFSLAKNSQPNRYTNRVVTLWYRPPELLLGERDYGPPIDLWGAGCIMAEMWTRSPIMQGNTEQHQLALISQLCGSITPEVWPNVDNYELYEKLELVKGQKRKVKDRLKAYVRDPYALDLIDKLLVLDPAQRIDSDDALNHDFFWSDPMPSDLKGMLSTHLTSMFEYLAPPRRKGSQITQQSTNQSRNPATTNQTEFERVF
Sequence of Glycogen synthase kinase-3 alpha (Homo sapiens) (P49840 2-483 limits assumed): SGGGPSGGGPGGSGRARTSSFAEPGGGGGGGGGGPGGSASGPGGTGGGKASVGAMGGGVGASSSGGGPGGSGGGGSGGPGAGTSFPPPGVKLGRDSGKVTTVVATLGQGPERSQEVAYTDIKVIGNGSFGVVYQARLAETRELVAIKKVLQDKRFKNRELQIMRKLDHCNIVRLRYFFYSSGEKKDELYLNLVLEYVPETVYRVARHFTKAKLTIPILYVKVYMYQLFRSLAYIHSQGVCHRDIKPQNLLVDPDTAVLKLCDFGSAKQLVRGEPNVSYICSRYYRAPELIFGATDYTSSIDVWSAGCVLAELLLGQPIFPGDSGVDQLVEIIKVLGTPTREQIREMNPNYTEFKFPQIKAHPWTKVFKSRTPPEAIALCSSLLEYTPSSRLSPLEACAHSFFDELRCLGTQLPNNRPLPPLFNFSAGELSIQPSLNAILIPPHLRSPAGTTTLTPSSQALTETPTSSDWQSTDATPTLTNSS
Sequence of Homeodomain-interacting protein kinase 4 (Homo sapiens) (Q8NE63 whole entry): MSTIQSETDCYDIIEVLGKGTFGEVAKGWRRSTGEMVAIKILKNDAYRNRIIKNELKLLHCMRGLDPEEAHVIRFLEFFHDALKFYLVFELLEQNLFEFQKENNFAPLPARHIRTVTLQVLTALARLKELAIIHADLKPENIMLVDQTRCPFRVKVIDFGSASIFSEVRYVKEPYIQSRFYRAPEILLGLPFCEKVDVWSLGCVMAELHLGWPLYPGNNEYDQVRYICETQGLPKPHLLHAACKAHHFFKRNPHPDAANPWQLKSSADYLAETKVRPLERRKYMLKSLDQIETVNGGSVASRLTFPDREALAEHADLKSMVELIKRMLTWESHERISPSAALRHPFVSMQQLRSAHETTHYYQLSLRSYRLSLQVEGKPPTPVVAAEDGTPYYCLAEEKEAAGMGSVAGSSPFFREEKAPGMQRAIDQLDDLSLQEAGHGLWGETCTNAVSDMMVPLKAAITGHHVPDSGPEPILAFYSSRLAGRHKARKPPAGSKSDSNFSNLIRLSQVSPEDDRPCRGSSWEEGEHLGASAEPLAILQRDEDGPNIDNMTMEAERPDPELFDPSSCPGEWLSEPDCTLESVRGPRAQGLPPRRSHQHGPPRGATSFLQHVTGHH
Sequence of Homeodomain-interacting protein kinase 2 (Homo sapiens) (Q9H2X6 whole entry, looked up): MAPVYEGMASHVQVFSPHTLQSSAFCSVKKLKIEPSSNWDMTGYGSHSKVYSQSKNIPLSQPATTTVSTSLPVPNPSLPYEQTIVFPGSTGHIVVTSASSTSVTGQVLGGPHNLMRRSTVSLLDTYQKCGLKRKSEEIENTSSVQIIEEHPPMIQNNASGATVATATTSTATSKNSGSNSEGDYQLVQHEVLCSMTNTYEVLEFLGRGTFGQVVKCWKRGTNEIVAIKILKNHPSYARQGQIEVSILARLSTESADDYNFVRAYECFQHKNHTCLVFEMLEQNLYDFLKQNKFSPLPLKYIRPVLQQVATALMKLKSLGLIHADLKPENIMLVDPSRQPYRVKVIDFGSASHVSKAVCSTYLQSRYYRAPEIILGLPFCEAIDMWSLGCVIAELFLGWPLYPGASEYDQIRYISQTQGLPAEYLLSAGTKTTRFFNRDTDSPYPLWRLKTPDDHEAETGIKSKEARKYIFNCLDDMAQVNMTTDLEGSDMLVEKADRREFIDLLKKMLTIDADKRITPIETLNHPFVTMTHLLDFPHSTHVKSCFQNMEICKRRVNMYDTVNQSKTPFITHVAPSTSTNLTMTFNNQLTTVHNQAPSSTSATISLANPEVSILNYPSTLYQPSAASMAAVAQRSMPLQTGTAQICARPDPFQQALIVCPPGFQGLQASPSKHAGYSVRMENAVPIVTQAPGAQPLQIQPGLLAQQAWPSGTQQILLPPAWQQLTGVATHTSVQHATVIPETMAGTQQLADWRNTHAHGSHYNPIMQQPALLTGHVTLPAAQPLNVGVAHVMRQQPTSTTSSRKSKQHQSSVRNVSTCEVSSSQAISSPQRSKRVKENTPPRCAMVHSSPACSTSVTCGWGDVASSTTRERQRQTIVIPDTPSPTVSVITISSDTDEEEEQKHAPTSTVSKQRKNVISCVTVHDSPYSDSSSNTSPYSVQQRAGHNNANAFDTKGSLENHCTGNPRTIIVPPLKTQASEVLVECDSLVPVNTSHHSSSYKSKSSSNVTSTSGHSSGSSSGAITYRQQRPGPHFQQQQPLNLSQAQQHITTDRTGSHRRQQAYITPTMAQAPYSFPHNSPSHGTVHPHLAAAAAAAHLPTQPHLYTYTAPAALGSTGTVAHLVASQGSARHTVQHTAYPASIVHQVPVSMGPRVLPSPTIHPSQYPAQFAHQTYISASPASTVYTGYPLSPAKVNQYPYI

Question: What does the source list for `CC(=O)N1CCC(NC(=O)c2ccc3cc2OCCCCCCOc2cc(ccc2F)-c2nc(ncc2F)N3)CC1`?
Answer: Activity [1]: Active; IC50 (HCC827 [2]): 0.0306 µM; Activity [3]: Non-toxic; half-life [4]: 1.25 h; IC50 [5]: < 0.01 µM; Activity [6]: 100%; Activity [7]: Non-toxic; inhibition [8]: 5.98%; Vd [9]: 1.9 L/kg; Activity [10]: Active; inhibition [11]: Active; IC50 [12]: 0.0483 µM; Imax [13]: >98%; IC50 (PC-9): 0.14 µM; CL/F [14]: 3.8 L/h/kg; concentration at 0.5 h [15]: 0.864 µg/mL; Activity [16]: Non-toxic; inhibition in vivo at 15 mg/kg (NCI-H1975 [17]): 65.8%; inhibition [18]: Active; inhibition [19]: 96%; half-life [20]: 6.7 h; Activity [21]: 22%; AUC(0-t) [22]: 3.61 µg·h/mL; Cmax [23]: 0.3441 µg/mL; microsomal CLint [24]: 35.3 µL/min/mg; inhibition [25]: 17.8%; IC50 (NCI-H1975 [26]): 0.11 µM; Ratio IC50 (HCC827 [27]): 10; Imax [28]: >98%; inhibition [29]: 97.5%; IC50 (NCI-H1975 [30]): 0.133 µM; half-life [31]: 2.14 h; IC50 (NCI-H1975 [32]): 0.0047 µM; AUC(0-inf) [33]: 0.396 µg·h/mL; inhibition [34]: 87.6%; microsomal CLint [35]: 23.5 µL/min/mg; AUC(0-t) [36]: 0.38 µg·h/mL; IC50 [37]: 0.0146 µM
